Test system: MCT-induced PAH
Test: Monocrotoline (MCT)-induced model of pulmonary arterial hypertension (PAH) in rats
Assay type: in vivo, rat
Conditions: day 28, oral BID, NTP42 and TP20 0.25 mg/kg/dose, Sildenafil 50 mg/kg/dose
Protocol: FIGS. 19-23 show the efficacy of NTP42 in the monocrotoline (MCT)-induced model of pulmonary arterial hypertension (PAH) in rats. In brief, male Wistar/Kyoto rats were given a single dose of MCT (60 mg/kg, subcutaneously) and then treated with twice daily doses (oral dosing) for 28 days with either the drug vehicle, the test article NTP42 (0.25 mg/kg/dose, BID) or with the reference compounds Sildenafil (50 mg/kg/dose, BID) or TP20 (0.25 mg/kg/dose, BID). As a control, a group of rats were left untreated, i.e., no MCT or therapeutic drugs. At Day 28, post-MCT induction, rats were anaesthetised for cardiac surgery & hemodynamic parameters recorded. Thereafter, the trachea, heart & lungs were removed en masse, the wet weights of the heart & lungs recorded and then the lungs were harvested, fixed and processed for histopathology.
Aperio's ImageScope was used to analyze the digitally scanned H&E stained lung sections, where 10 random squares (approx. size or each square=1×10^6 μm^2) per lower, middle and upper section of lung tissue were selected for analysis. Within each square, all blood arterioles (complete arterioles within each square and those touching the right & bottom were assessed but not the left or top of the squares) were measured in ImageScope for luminal and total vessel diameter where the ratio of lumen to total vessel diameter was determined for each arteriole.
FIGS. 24-27 show the effect of the test articles on the mean (±S.E.M.) lumen: total vessel diameter ratio for all arterioles (Total) and the arterioles categorized by size: small, <50 μm total diameter; medium, 50-100 μm and large, >100 μm.
FIG. 27 presents data representing the mean (±SEM) lumen: total vessel diameter ratio for large arterioles (>100 μm).

With CCCc1nn(C)c2c(=O)[nH]c(-c3cc(S(=O)(=O)N4CCN(C)CC4)ccc3OCC)nc12 [Sildenafil, reference compound] the “lumen: total vessel diameter ratio versus animals treated with MCT-alone” value was “significantly increased”.
